Experiments:
[1] = test system: GLI-induced transcription in Sufu−/− MEFs; experiment: Substance testing: Hh/Gli reporter 8×GliLuc in Sufu−/− MEFs (inhibition of GLI-induced transcription); assay type: cell-based, mouse; details: 72 h of treatment
Experimental: Inhibition of GLI-induced transcription. (A) Sufu^−/− MEFs were transfected with Hh/Gli reporter plasmid 8×GliLuc and a renilla luciferase plasmid for normalisation. Luciferase activity was measured after 72 h of treatment time with the indicated compound.
For the substance testing, Sufu−/− MEF cells are transfected with 8×Gli and phRL-SV40 (or phRL-TK) plasmids using Fugene transfection reagent on larger plates. The day after transfection, cells are replated on suitable microwell plates. When cells reach confluency, substances, which are tested for inhibiting activity, (dissolved in DMSO) are added at a concentration of approximately 10 μM, or any other appropriate concentration. As control, the same volume of only DMSO without test compound is added (reaching a final concentration of e.g. 0.5-2% of DMSO in the cell culture medium) in order to assess solvent-based effects. Cells are lysed approximately 3-4 days later, and luciferase levels are measured using the Dual-Reporter Luciferase system (Promega) or any other suitable method.
Signals were recorded using the Dual Luciferase Kit (Promega) for luciferase measurements and Galacto-Light Plus (Applied Biosystems) for β-Galactosidase measurements.

[2] = test system: Gli2; details: HEK293 cells transfected with Gli2 plasmid; 48 h treatment
Experimental: (§1) Luciferase activity was measured after 72 h of treatment time with the indicated compound. […] (B) Gli1 inhibition, (C) Gli2 inhibition in HEK293 cells. Treatment was for 48 h after transfection of the corresponding Gli plasmid and a Hh/Gli reporter (12×GliBS-Luc) and a renilla luciferase plasmid for normalisation.
(§2) Transfections were done using Fugene (Roche) according to instructions given by the manufacturer.
(§3) Hh reporter assays were performed essentially as described (59, 60). Signals were recorded using the Dual Luciferase Kit (Promega) for luciferase measurements and Galacto-Light Plus (Applied Biosystems) for β-Galactosidase measurements.

[3] = test system: Gli1; details: HEK293 cells transfected with Gli1 plasmid; 48 h treatment
Experimental: as §1, §2, §3

[4] = test system: β-Galactosidase reporter enzyme (pSV40-lacZ); experiment: Gli-independent β-Galactosidase construct (pSV40-lacZ) control; assay type: cell-based
[5] = test system: Gli reporter activity in Sufu−/− MEFs; experiment: 8×GliLuc luciferase reporter assay in Sufu−/− MEFs; assay type: cell-based, mouse
Experimental: For the luciferase reporter assays, 20,000 MEF cells were seeded into each well of a 24-well plate in MEF medium. The following day, cells were transfected using FuGENE 6 (Roche) with 300 ng of the luciferase reporter plasmids 8×GliLuc and 8×Gli^mutLuc (58) with or without 300 ng of the pMYC-SUFU expression plasmid (9), 300 ng of a constitutively active PKA catalytic subunit expression plasmid (59) or with 300 ng of the TOPflash and FOPflash reporter plasmids (Upstate Biotechnology), together with 50 ng the Renilla luciferase phRL-TK reporter (Promega) to monitor the transfection efficiency. […] The assays were conducted in triplicate and repeated at least three times. The values were normalized to the Renilla reporter before calculating relative levels.

[6] = test system: EGFP::Gli1 nuclear export in MEFs; experiment: GLI1 subcellular localization in MEFs (EGFP::GLI1, confocal); assay type: cell-based, mouse; details: Wt, Sufu−/− and Ptch1−/− MEFs; 10 ng/ml Leptomycin B, 3-6 hours
Experimental: Wt, Sufu^−/− and Ptch1^−/− MEFs (1×10^6 cells) were each transfected with 5 μg of the expression constructs containing GLI1 cDNA fused in frame 3′ of EGFP [EGFP::GLI1, (9)] or with the parental EGFP plasmid alone (BD Biosciences Clontech) in MEF 1 solution using Nucleofector technology, program T-20 (Amaxa Biosystems), and seeded onto slide chambers followed by culturing overnight. Twenty-four hours after transfection, cells were either treated with 10 ng/ml Leptomycin B (Sigma) for 3-6 hours or left untreated, washed in PBS, fixed in 4% PFA, washed in PBS again and incubated with DRAQ5 (Alexis Biochemicals) for visualization of cell nuclei, followed by mounting using ProLong Gold antifade reagent (Invitrogen). Fluorescence was visualized using a Zeiss LSM510 confocal microscope with lasers set at 488 nm for EGFP and at 633 nm for DRAQ5.

With CC1=C2C[C@H]3[C@@H](CC=C4C[C@@H](O)CC[C@@]43C)[C@@H]2CC[C@]12O[C@@H]1C[C@H](C)CN[C@H]1[C@H]2C [Cyclopamine] the “Luciferase signal intensity (8×GliLuc, renilla-normalised)” value [1] was “ineffective”, the “Gli2 inhibition (12×GliBS-Luc reporter)” value [2] was “inactive” and the “Gli1 inhibition (12×GliBS-Luc reporter)” value [3] was “inactive”.
For CN(C)CCCNc1ccc2c(c1)C(=O)c1ccccc1C2=O [GANT55, 2-(3-Dimethylamino-propylamino)-anthraquinone], the “Luciferase signal intensity (8×GliLuc, renilla-normalised)” value [1] was “reduces signal intensity in a dose-dependent manner” and the “Unspecific inhibition of the β-Galactosidase reporter enzyme” value [4] was “not due to unspecific inhibition of the reporter enzyme”.
With O=S(=O)(NCCNC/C=C/c1ccc(Br)cc1)c1cccc2cnccc12 [H-89] the “Effect on the Gli response (8×GliLuc)” value ([5]; MEFs, 1 μM H-89, one day) was “no significant effect”.
With CCC(=C/[C@H](C)C/C=C/C(C)=C/[C@@H](C)C(=O)[C@@H](C)[C@H](O)[C@@H](C)C/C(C)=C/C(=O)O)/C=C/[C@@H]1OC(=O)C=C[C@@H]1C [LMB, Leptomycin B] the “Subcellular localization of EGFP::Gli1 fusion protein” value [6] was “strong nuclear retention”.
With CNC1CCC(N(Cc2cccc(-c3ccncc3)c2)C(=O)c2sc3ccccc3c2Cl)CC1 (stereo not drawn) [SAG] the “Effect on Gli reporter activity (8×GliLuc)” value ([5]; Sufu−/− MEFs, 10 μM cyclopamine or 100 nM SAG for two days) was “No further increase in Gli reporter activity”.
C=C[C@@]1(C)CC(=O)[C@]2(O)[C@@]3(C)[C@@H](O)CCC(C)(C)[C@@H]3[C@H](O)[C@H](OC(C)=O)[C@@]2(C)O1 [forskolin] gave an inhibition at 100 µM ([5]; Mus musculus, 24 h, Sufu−/− MEFs, 100 μM forskolin, one day, read-out: Inhibition of the Gli-mediated response) of about 50%.
